Data as given in PMC6981117, “Redox-coupled proton pumping drives carbon concentration in the photosynthetic complex I” (Nature Communications, 2020).

Target: T1, NDH-1MS (NDH-1_3), photosynthetic complex I; NdhF3 subunit (Thermosynechococcus vestitus, UniProt Q8DKF5)
T1 construct: native complex from T. elongatus thylakoid membranes, C-terminal TwinStrep tag on CupS; NdhV not resolved; with CO2 hydration protein CupA; CO2 uptake protein CupS; NAD(P)H-quinone oxidoreductase chain 4-3; NAD(P)H-quinone oxidoreductase subunit 1; NAD(P)H-quinone oxidoreductase subunit 2; NAD(P)H-quinone oxidoreductase subunit 3; NAD(P)H-quinone oxidoreductase subunit 4L; NAD(P)H-quinone oxidoreductase subunit 6; NAD(P)H-quinone oxidoreductase subunit L; NAD(P)H-quinone oxidoreductase subunit S; NAD(P)H-quinone oxidoreductase subunit H; NAD(P)H-quinone oxidoreductase subunit I; NAD(P)H-quinone oxidoreductase subunit J; NAD(P)H-quinone oxidoreductase subunit K; NAD(P)H-quinone oxidoreductase subunit M; NAD(P)H-quinone oxidoreductase subunit N; NAD(P)H-quinone oxidoreductase subunit O
T1 sequence (Q8DKF5 1-611): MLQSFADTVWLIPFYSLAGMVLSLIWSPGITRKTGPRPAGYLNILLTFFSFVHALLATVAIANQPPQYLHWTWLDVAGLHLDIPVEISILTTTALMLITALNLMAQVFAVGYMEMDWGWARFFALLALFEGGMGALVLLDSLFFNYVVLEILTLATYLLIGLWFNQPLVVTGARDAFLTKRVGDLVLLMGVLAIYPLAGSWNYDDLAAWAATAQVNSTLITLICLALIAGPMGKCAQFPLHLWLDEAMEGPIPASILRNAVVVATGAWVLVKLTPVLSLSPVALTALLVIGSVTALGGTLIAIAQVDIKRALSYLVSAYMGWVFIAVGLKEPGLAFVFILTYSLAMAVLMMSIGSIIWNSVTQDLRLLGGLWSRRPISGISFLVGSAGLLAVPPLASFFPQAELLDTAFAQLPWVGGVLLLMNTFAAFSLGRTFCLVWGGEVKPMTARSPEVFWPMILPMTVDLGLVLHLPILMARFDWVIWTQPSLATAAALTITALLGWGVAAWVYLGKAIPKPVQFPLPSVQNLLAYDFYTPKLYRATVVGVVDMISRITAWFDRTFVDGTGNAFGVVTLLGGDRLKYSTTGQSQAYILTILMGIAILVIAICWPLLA
Assay: cryo-EM structure, […] Å
Type: binding
Conditions: co-purified; motif with chlorophyll a in NdhF3

In the case of CC1=C(/C=C/C(C)=C/C=C/C(C)=C/C=C/C=C(C)/C=C/C=C(C)/C=C/C2=C(C)CCCC2(C)C)C(C)(C)CCC1 [β-carotene], the “cryo-EM structure, 3.2 Å” value is reported as “NdhF3 binds a chlorophyll a/β-carotene motif that connects via His469 of NdhF3”.
